Measurements reported in patent US6608004B2, “Substituted 2-aryl-1,2,4-triazine-3,5-di(thi)ones” (priority 1999, dated 2003).
Read-outs that look alike come from different tables or passages of the source.

Key:
[1] = logP determination by HPLC, reversed-phase column (C 18), EEC Directive 79/831 Annex V.A8
From the text: (a) Mobile phases for the determination in the acidic range: 0.1% aqueous phosphoric acid, acetonitrile; linear gradient from 10% acetonitrile to 90% acetonitrile—the corresponding measurement results are labelled in Table 1 with ^a).
(b) Mobile phases for the determination in the neutral range: 0.01 molar aqueous phosphate buffer solution, acetonitrile; linear gradient from 10% acetonitrile to 90% acetonitrile—the corresponding measurement results are labelled in Table 1 with ^b).

weeds [2] = assay: Post-Emergence Test (Example B), activity against weeds; format: in vivo; details: test plants of a height of 5-15 cm sprayed, rated after three weeks
From the text: (§1) Solvent: 5 parts by weight of acetone
(§2) Emulsifier: 1 part by weight of alkylaryl polyglycol ether
(§3) After three weeks, the degree of damage to the plants is rated in % damage in comparison to the development of the untreated control.

weeds [3] = assay: Pre-Emergence Test (Example A), activity against weeds; format: in vivo; details: soil sprayed about 24 hours after sowing, rated after three weeks
From the text: as §1, §2
(§4) Seeds of the test plants are sown in normal soil.
0%=no effect (like untreated control)

[4] = tested on: crop plants, such as, for example, barley, wheat, rapeseed, soya and sugar beet; assay: Pre-Emergence Test (Example A), tolerance by crop plants; format: in vivo
From the text: as §1, §2, §4

[5] = tested on: crop plants, such as, for example, barley and wheat; assay: Post-Emergence Test (Example B), tolerance by crop plants
From the text: as §1, §2, §3

[6] = a) acidic range: 0.1% aqueous phosphoric acid, acetonitrile gradient, HPLC C 18, 43° C.
[7] = pre-emergence, barley, wheat, rapeseed, soya and sugar beet, rated after three weeks
[8] = post-emergence, barley and wheat, rated after three weeks

Row | logP a) [1] | SMILES | activity against weeds (degree of damage) (weeds [2]) | activity against weeds (degree of damage) (weeds [3]) | tolerance by crop plants ([4]; in vivo) | tolerance by crop plants ([5]; in vivo) | logP a) [1, 6] | tolerance by crop plants [4, 7] | tolerance by crop plants [5, 8]
1 | m.p.: 132 °C logP = 2.85^a) | CCS(=O)(=O)N(C(=O)C(C)Oc1ccccc1)c1cc(-n2ncc(=O)n(C)c2=O)c(F)cc1C#N (racemic) [Example 39] | very strong activity | very strong activity | essentially being tolerated well | essentially being tolerated well |  |  | 
2 | logP = 2.38^a) | CCS(=O)(=O)N(C(=O)C(C)Cl)c1cc(-n2ncc(=O)n(C)c2=O)c(F)cc1C#N (racemic) [Example 61] | very strong activity | very strong activity | essentially being tolerated well | essentially being tolerated well |  |  | 
3 | logP = 2.09^a) | CCS(=O)(=O)N(C(=O)CCl)c1cc(-n2ncc(=O)n(C)c2=O)c(F)cc1C#N [Example 4] | very strong activity | very strong activity | essentially being tolerated well | essentially being tolerated well |  |  | 
4 | m.p.: 176 °C logP = 2.52^a) | CCS(=O)(=O)N(C(=O)c1ccccc1F)c1cc(-n2ncc(=O)n(C)c2=O)c(F)cc1C#N [Example 5] | very strong activity | very strong activity | essentially being tolerated well | essentially being tolerated well |  |  | 
5 | m.p.: 65 °C logP = 3.07^a) | CCS(=O)(=O)N(C(=O)COc1ccc(Cl)cc1)c1cc(-n2ncc(=O)n(C)c2=O)c(F)cc1C#N [Example 6] | very strong activity | very strong activity | essentially being tolerated well | essentially being tolerated well |  |  | 
6 | logP = 2.71^a) | CCS(=O)(=O)N(C(=O)C(C)(C)C)c1cc(-n2ncc(=O)n(C)c2=O)c(F)cc1C#N [Example 10] | very strong activity | very strong activity | essentially being tolerated well | essentially being tolerated well |  |  | 
7 | logP = 2.50^a) | CCS(=O)(=O)N(C(=O)C(C)C)c1cc(-n2ncc(=O)n(C)c2=O)c(F)cc1C#N [Example 13] | very strong activity | very strong activity | essentially being tolerated well | essentially being tolerated well |  |  | 
8 | m.p.: 90 °C logP = 2.31^a) | CCS(=O)(=O)N(C(=O)c1ccco1)c1cc(-n2ncc(=O)n(C)c2=O)c(F)cc1C#N [Example 14] | very strong activity | very strong activity | essentially being tolerated well | essentially being tolerated well |  |  | 
9 |  | CCS(=O)(=O)N(C(=O)C1CCCCC1)c1cc(-n2ncc(=O)n(C)c2=O)c(F)cc1C#N [Example 16] | very strong activity | very strong activity |  |  | m.p.: 182 °C logP = 2.46^a) | essentially being tolerated well | essentially being tolerated well
10 |  | C/C=C/C(=O)N(c1cc(-n2ncc(=O)n(C)c2=O)c(F)cc1C#N)S(=O)(=O)CC [Example 18] | very strong activity | very strong activity |  |  | m.p.: 153 °C logP = 2.16^a) | essentially being tolerated well | essentially being tolerated well
11 | logP = 2.94^a) | CCS(=O)(=O)N(C(=O)CC(C)(C)C)c1cc(-n2ncc(=O)n(C)c2=O)c(F)cc1C#N [Example 19] | very strong activity | very strong activity | essentially being tolerated well | essentially being tolerated well |  |  | 
12 | logP = 2.65^a) | CCS(=O)(=O)N(C(=O)CC(C)C)c1cc(-n2ncc(=O)n(C)c2=O)c(F)cc1C#N [Example 20] | very strong activity | very strong activity | essentially being tolerated well | essentially being tolerated well |  |  | 
13 | logP = 2.65^a) | CCS(=O)(=O)N(C(=O)CCCCCl)c1cc(-n2ncc(=O)n(C)c2=O)c(F)cc1C#N [Example 22] | very strong activity | very strong activity | essentially being tolerated well | essentially being tolerated well |  |  | 
14 | m.p.: 187 °C logP = 2.82^a) | CCS(=O)(=O)N(C(=O)c1nn(C)c(OC(F)F)c1C)c1cc(-n2ncc(=O)n(C)c2=O)c(F)cc1C#N [Example 23] | very strong activity | very strong activity | essentially being tolerated well | essentially being tolerated well |  |  | 
15 | logP = 1.82^a) | CCS(=O)(=O)N(C(=O)COC)c1cc(-n2ncc(=O)n(C)c2=O)c(F)cc1C#N [Example 25] | very strong activity | very strong activity | essentially being tolerated well | essentially being tolerated well |  |  | 
16 | m.p.: 123 °C logP = 2.60^a) | CCS(=O)(=O)N(C(=O)c1ccc(F)cc1)c1cc(-n2ncc(=O)n(C)c2=O)c(F)cc1C#N [Example 26] | very strong activity | very strong activity | essentially being tolerated well | essentially being tolerated well |  |  | 
17 | logP = 2.43^a) | CCS(=O)(=O)N(C(=O)CCCCl)c1cc(-n2ncc(=O)n(C)c2=O)c(F)cc1C#N [Example 27] | very strong activity | very strong activity | essentially being tolerated well | essentially being tolerated well |  |  | 
18 | logP = 1.79^a) | CCS(=O)(=O)N(C(C)=O)c1cc(-n2ncc(=O)n(C)c2=O)c(F)cc1C#N [Example 28] | very strong activity | very strong activity | essentially being tolerated well | essentially being tolerated well |  |  | 
19 | logP = 2.51^a) | CCS(=O)(=O)N(C(=O)CCCBr)c1cc(-n2ncc(=O)n(C)c2=O)c(F)cc1C#N [Example 30] | very strong activity | very strong activity | essentially being tolerated well | essentially being tolerated well |  |  | 
20 | m.p.: 123 °C logP = 3.66^a) | CCS(=O)(=O)N(C(=O)CCC1CCCCC1)c1cc(-n2ncc(=O)n(C)c2=O)c(F)cc1C#N [Example 31] | very strong activity | very strong activity | essentially being tolerated well | essentially being tolerated well |  |  | 
21 |  | CCS(=O)(=O)N(C(=O)C=C(C)C)c1cc(-n2ncc(=O)n(C)c2=O)c(F)cc1C#N [Example 32] | very strong activity | very strong activity |  |  | m.p.: 150 °C logP = 2.40^a) | essentially being tolerated well | essentially being tolerated well
22 | m.p.: 210 °C logP = 2.73^a) | CCS(=O)(=O)N(C(=O)Cc1ccc(F)cc1F)c1cc(-n2ncc(=O)n(C)c2=O)c(F)cc1C#N [Example 36] | very strong activity | very strong activity | essentially being tolerated well | essentially being tolerated well |  |  | 
23 | m.p.: 222 °C logP = 2.96^a) | CCS(=O)(=O)N(C(=O)Cc1ccc(Cl)cc1)c1cc(-n2ncc(=O)n(C)c2=O)c(F)cc1C#N [Example 42] | very strong activity | very strong activity | essentially being tolerated well | essentially being tolerated well |  |  | 

Row | SMILES | logP a) [1] | activity against weeds (degree of damage) (weeds [2]) | activity against weeds (degree of damage) (weeds [3]) | tolerance by crop plants ([4]; in vivo) | tolerance by crop plants ([5]; in vivo) | logP a) [1, 6] | tolerance by crop plants [4, 7] | tolerance by crop plants [5, 8]
24 | CCS(=O)(=O)N(C(=O)COc1ccccc1Cl)c1cc(-n2ncc(=O)n(C)c2=O)c(F)cc1C#N [Example 35] | m.p.: 220 °C logP = 2.89^a) | very strong activity | very strong activity | essentially being tolerated well | essentially being tolerated well |  |  | 
